Measured values reported in patent US12139472B2, “Inhibitors of advanced glycation end products” (priority 2019, dated 2024).

What was measured:
CYP3A [1] = biological target: T1, CYP3A (Homo sapiens, UniProt P08684); assay type: in vitro ADME; settings: HLM
T1 construct: Two studies were conducted in human liver microsomes (HLM); tissue Eurofins G232 panel; host or cells: human liver microsomes
Excerpt: (§1) Compound 5 (PTG-630 free base) and 7 additional compounds for CYP3A P450 inhibition.
(§2) Imidazole (and benzimidazole) containing drugs are ubiquitous in pharmacological practice; however, drug-drug interactions (DDI) have been observed with some imidazole-containing classes, such as the antifungal azoles typified by ketoconazole. It is believed that the imidazole moiety accounts for their ability to inhibit CYP3A, the major DDI enzyme that metabolizes up to 50% of common drugs. The compounds of the disclosure incorporate an imidazole moiety attached to a pyridine ring via the imidazole C-2. They all share an imidazo-hydroxypyridine theme that can bind redox metal ions, while differing in the nature of the X side-chain. The potential of the compounds of the disclosure for DDI was evaluated by screening their inhibition of CYP3A.
Two studies were conducted in human liver microsomes (HLM). Lead candidate PTG-630 was tested using the Eurofins G232 panel (Drug Metab Dispos. 2001 January; 29(1):23-9), where inhibition was measured against seven CYP enzymes; CYP3A4 was tested using two different substrates, midazolam and testosterone. In a second study, inhibition of CYP3A4 (midazolam substrate only) was compared for 8 compounds of interest. The test protocol involved one-point measurements in duplicate, where inhibition was measured at a fixed 10 μM concentration of candidate inhibitors. In all cases, the substrate for each CYP enzyme was at a concentration equal to its specific Km value that was independently obtained from an 8-point dose-response study. Based on the observed value for percent inhibition for each test compound, we calculated of an IC50 assuming a competitive mode of inhibition. If percent inhibition for an inhibitor at a concentration of [I] is denoted by P, then: IC50=[I]*(100−P)/P In the single-point assay, [I] is 10 μM. If measured inhibition is 10%, then IC50=10*(100-10)/10=90 μM. […]

CYP3A [2] = assay type: in vitro ADME, human; settings: HLM
Excerpt: as §1, §2
(§3) Two studies were conducted in human liver microsomes (HLM). Lead candidate PTG-630 was tested using the Eurofins G232 panel (Drug Metab Dispos. 2001 January; 29(1):23-9), where inhibition was measured against seven CYP enzymes; CYP3A4 was tested using two different substrates, midazolam and testosterone. In a second study, inhibition of CYP3A4 (midazolam substrate only) was compared for 8 compounds of interest. The test protocol involved one-point measurements in duplicate, where inhibition was measured at a fixed 10 μM concentration of candidate inhibitors. In all cases, the substrate for each CYP enzyme was at a concentration equal to its specific Km value that was independently obtained from an 8-point dose-response study. Based on the observed value for percent inhibition for each test compound, we calculated of an IC50 assuming a competitive mode of inhibition. If percent inhibition for an inhibitor at a concentration of [I] is denoted by P, then: IC50=[I]*(100−P)/P In the single-point assay, [I] is 10 μM. If measured inhibition is 10%, then IC50=10*(100-10)/10=90 μM. […] As discussed in Lin et al. (J Pharm Sci. 2007 September; 96(9):2485-93; doi: 10.1002/jps.20884), CYP inhibition is broadly interpreted as being “potent” if IC50<1 μM, “moderate” if 1 μM<IC50<10 μM, and “weak” if IC50>10 μM.

CYP2C9 = biological target: T2, CYP2C9 (Homo sapiens, UniProt P11712); assay: CYP2C9 inhibition (HLM), diclofenac; assay type: in vitro ADME
T2 construct: Two studies were conducted in human liver microsomes (HLM); tissue Eurofins G232 panel; host or cells: human liver microsomes
T2 sequence (P11712 whole entry): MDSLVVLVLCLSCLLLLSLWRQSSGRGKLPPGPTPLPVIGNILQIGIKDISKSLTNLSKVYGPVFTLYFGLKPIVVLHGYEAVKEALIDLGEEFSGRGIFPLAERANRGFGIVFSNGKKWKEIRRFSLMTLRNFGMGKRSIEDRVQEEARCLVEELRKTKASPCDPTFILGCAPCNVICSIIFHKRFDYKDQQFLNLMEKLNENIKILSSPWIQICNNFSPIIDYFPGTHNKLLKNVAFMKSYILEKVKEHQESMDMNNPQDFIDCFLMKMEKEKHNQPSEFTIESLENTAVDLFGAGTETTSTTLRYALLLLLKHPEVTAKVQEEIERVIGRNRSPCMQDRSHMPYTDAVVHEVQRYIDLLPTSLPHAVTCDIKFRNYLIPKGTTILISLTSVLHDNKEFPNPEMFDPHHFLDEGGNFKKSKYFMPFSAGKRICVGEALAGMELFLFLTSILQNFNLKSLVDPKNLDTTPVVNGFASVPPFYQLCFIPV
Protocol: as §1, §3

[3] = Preparation of dosing solutions in 0.5% methyl cellulose and 0.1% Tween 20 in water; assay type: physicochemical; settings: 0.5% methyl cellulose
Protocol: Compound 5 (PTG-630 free base) and Compound 19 (PTG-630 HCl salt) solutions were prepared in 0.5% methyl cellulose and 0.1% Tween 20 in water for administration to animals by oral gavage (PO).
Compound 5 was administered at 10 mg/kg and 100 mg/kg. […] The solution was vortexed vigorously for minutes and then sonicated in a water bath for 5 min. The solution remained as a thick creamy yellowish suspension at pH 8. The solution for the 10 mg/kg free base dose (2 mg/ml solution) was easier to prepare. […] The final solution that was administered was a clear, light yellowish solution with few small particulates in suspension.
Compound 19 was administered at 10 mg/kg. […] The solution (2 mg/ml) was clear yellowish (although lighter than the Compound 5 solution at 2 mg/ml) with no particulates in suspension. The pH decreased to 3.

[4] = Pharmacokinetic study for PTG-630 (IV and PO): plasma, whole blood, tissues, urine; assay type: in vivo, Sprague Dawley rats
Protocol: The samples were analyzed in two batches with standards and QCs prepared on rat plasma and rat urine. Analyst® 1.6 (SCIEX) software was used for statistical analysis of bioanalytical data. […] Dose samples collected at 0.083 h-6 h postdose were diluted 4 times with SD rat plasma prior to plating. Twenty-four (24) hours plasma samples were assayed without dilution. […] Two sciatic nerve samples were excluded from analysis, due to the insufficient sample size. […] The 12 non-cannulated animals were arbitrarily assigned to groups upon arrival and housed together throughout the experiment. The animals were acclimated to their designated housing for at least 24 hours before the first day of dosing. […] Blood samples were collected via cannula from IV dosed rats or by cardiac stick from PO dosed rats at the specified time points for sampling pharmacokinetics. Blood was collected into K2EDTA tubes. Tubes were mixed gently after blood collection, chilled and centrifuged at 3000 rpm, 4° C. within 30 minutes upon collection. The samples were centrifuged at 4° C. and the resultant plasma separated. […] Urine from Group 1 was collected via polycarbonate tubes from rats placed in drug metabolism cages. Urine was maintained and room temperature through the collection period.

[5] = plasma, PO 100 mg/kg vs IV 5 mg/kg

T1 sequence (P08684 2-503): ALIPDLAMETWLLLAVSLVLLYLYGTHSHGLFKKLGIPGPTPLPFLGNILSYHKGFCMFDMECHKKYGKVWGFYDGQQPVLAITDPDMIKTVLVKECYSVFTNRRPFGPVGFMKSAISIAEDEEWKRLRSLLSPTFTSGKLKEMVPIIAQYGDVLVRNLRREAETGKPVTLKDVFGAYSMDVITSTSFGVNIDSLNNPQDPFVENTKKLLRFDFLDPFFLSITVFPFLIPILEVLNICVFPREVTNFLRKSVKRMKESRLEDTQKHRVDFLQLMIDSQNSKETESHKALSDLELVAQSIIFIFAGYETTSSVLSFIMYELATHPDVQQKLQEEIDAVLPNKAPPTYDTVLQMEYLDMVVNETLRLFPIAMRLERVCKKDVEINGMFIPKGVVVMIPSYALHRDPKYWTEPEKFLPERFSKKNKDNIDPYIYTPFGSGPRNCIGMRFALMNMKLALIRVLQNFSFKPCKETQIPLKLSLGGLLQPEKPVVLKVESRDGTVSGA

## Cc1ncc(CN2CCOCC2)c(-c2ncc[nH]2)c1O [PTG-630]
CYP3A [1]; CYP3A, substrate testosterone at Km, Inhib Conc. 1.0E−05 M
  P % inhib: 1.56%
CYP3A [1]; CYP3A, testosterone, from one-point % inhibition at 10 μM, IC50=[I]*(100−P)/P, read-out: Estimated IC50
  IC50: 631 µM
CYP3A [1]; 10 μM
  CYP3A inhibition using testosterone as substrate (in words): very weak inhibition
CYP3A [2]; midazolam, from one-point % inhibition at 10 μM, IC50=[I]*(100−P)/P
  Estimated IC50: — None
CYP3A [2]; substrate midazolam at Km, Inhib Conc. 1.0E−05 M
  P % inhib: −12.1%
CYP2C9; diclofenac, from one-point % inhibition at 10 μM, IC50=[I]*(100−P)/P, read-out: Estimated IC50
  IC50: 284 µM
CYP2C9; substrate diclofenac at Km, Inhib Conc. 1.0E−05 M
  P % inhib: 3.4%
[3]; 2 mg/ml solution (10 mg/kg dose)
  dissolution in vehicle: few small particles remained
[3]; 20 mg/ml solution (100 mg/kg dose)
  dissolution in vehicle: difficult to dissolve
[4]; [5]
  fold decrease in AUClast for PO route over IV route: 4 fold
  fold decrease in mean Cmax for PO route over IV route: 17 fold
[4]; rat, in vivo
  Mean Residence Time (MRT) in plasma, single IV versus PO group: comparable
  bioavailable, PO route, based on AUCinf: < 1%
  increase in the half-life in plasma, IV route in comparison with PO route: 4.25 folds
[4]; rat, in vivo, iv
  terminal phase half-life: 15.8 h
[4]; rat, in vivo, iv, 5 mg/kg
  AUClast: 34000 ng·h/mL
  Cmax: 20,400 ng/mL
[4]; rat, in vivo, po
  AUC last in liver higher than in plasma: 2.6 folds
  Elimination phase half-life (t1/2): 1.35 h
  Half-life: 4.53 h
  Tmax in tissues: 1 h
  absorption in tissues (in words): rapidly absorbed in tissues without delay
  detection in tissues 24 hours postdose: not detectable in any tissue, except plasma
  exposure in kidney higher than in plasma, based on Cmax: 3.4 folds
  exposure in liver higher than in plasma, based on Cmax: 5.47 folds
  exposure in muscle (lowest) versus plasma: comparable to those in plasma
  half-life: 3.71 h
  half-life in brain relative to plasma (times higher): 1.3 times
  level of exposure in selected tissues exceeds the exposure in plasma (up to): 3-5 folds
  quantifiable in tissues: quantifiable in all tested tissues
[4]; rat, in vivo, po, 100 mg/kg
  AUClast: 8600 ng·h/mL
[4]; rat, po
  blood brain permeability (in words): indicating blood brain permeability
